Measurements as given in patent US7101915B1, “P-terphenyl compounds” (Shionogi & Co., Ltd., priority 1996, dated 2006).

Key:
[1] = test system: IgG1 production of mouse spleen lymphocytes; test: Suppressive effect on antibody production of mouse spleen lymphocytes: IgG1; type: cell-based, BALB/c (nu/nu) mice; details: Lymphocyte, 240 h, LPS + IL-4, 10 days
Protocol: (§1) Experiment 6 Suppressive Effect on Antibody Production of Mouse Spleen Lymphocytes 1. Experimental Method 1) Animals
(§2) BALB/c (nu/nu) mice were bought from Japan SLC, Inc. (Shizuoka) and 7 weeks old-male mice were used.
(§3) RPMI medium (Nissui Pharmaceutical Co., Ltd.) containing 10% fetal bovine serum (HyClone Lab.) inactivated at 56° C. for 30 minutes, penicillin (100 units/ml) and streptomycin (100 μg/ml) (GIBCO) was used for experiments.
(§4) Each of the compounds was dissolved in dimethylsulfoxide (Nakaraitesk) at […] and diluted with the medium to adjust a final concentration to 0.1 μg/ml −10 μg/ml.
(§5) 4) Mouse Spleen Lymphocytes […]
(§6) In 96-well cultivating plate (Sumitomo Bakelite Company Limited) mouse spleen lymphocytes were inoculated 2×10^5 cells per well. […] After the cultivation for 10 days, the amount of the antibody in a supernatant was quantified by ELISA method.
(§7) 7) Quantification of the IgG1, IgG2a and IgM Antibodies
(§8) In 96-well plate 50 μl of 10 μg/ml Goat Anti-Mouse Ig (IgM+G+A, H+ L) (Southern Biotechnology, Birmingham) was added and the plate was coated at 4° C. overnight. […] After washing three times with PBST, 100 μl of culture supernatant which was diluted with PBS or 100 μl of an antibody standard solution (Mouse IgG1 standard, Mouse IgG2a standard, Mouse IgM standard, BETHYL Laboratories) of a pre-determined concentration was added and incubated for 1 hour. […]

[2] = test system: IgG2a production of mouse spleen lymphocytes; test: Suppressive effect on antibody production of mouse spleen lymphocytes: IgG2a; type: cell-based, BALB/c (nu/nu) mice; details: Lymphocyte, 240 h, LPS + IL-4, 10 days
Protocol: as §1, §2, §3, §4, §5, §6, §7, §8

[3] = test system: inflammatory cells in BAL solution of OVA-sensitized mice; test: Suppressive effect on bronchial inflammatory cell infiltration by inhalation of antigen (BAL cell counts); type: in vivo, BALB/c mice; details: 40 mg/kg orally for 9 days, BAL 48 hours after challenge, FIG. 4
Protocol: Experiment 7 Suppressive Effect on Bronchial Inflammatory Cell Infiltration by Inhalation of Antigen • 1. Experimental Method • 1) Animals
BALB/c mice bought from Japan SLC, Inc. (Shizuoka) (female, 8-11 weeks old) were used for experiments.
2) Sensitizing and Challenge of Antigen
For immunizing, 0.2 ml of a suspension of 2 μg of ovalbumin (OVA; Grade V, SIGMA) and 2 mg of aluminium hydroxide gel in physiological saline was intraperitoneally injected. After 2 weeks, 0.2 ml of a solution of 2 μg of OVA in physiological saline was intraperitoneally injected for a booster. […]
After calculation of the total cell number by coloring of a part of BAL solution with Türk solution, cells in BAL solution were put on a slide glass with cytospin (SHANDON) for May-Grünwald-Giemsa (MERCK) staining. Under a microscope, 500 cells were classified to a macrophage, an eosinophil, a neutrophil and a lymphocyte and a proportion of each type of the cells was calculated. The number of each type of the cells was calculated by a multiplication of its proportion and the total cell number.

[4] = test system: BGG-specific IgE in a serum; test: Suppressive effect on the antibody production against bovine γ globulin (BGG), sandwich ELISA; type: in vivo, BALB/c mice; details: 50 mg/kg p.o. every day, serum after 21 days
Protocol: Experiment 3 Suppressive Effect on the Antibody Production Against Bovine γ Globulin (BGG)
On an immunizing day and 7 days after, 50 μg of BGG was subcutaneously inoculated to backs of BALB/c mice (male, 6-8 weeks old) for inducing an immune reaction. After the compound of the present invention was dissolved or suspended in N, N-dimethylacetoamide, the mixture was diluted with miglyol 812 neutral oil. A proper volume of the compound was orally administered (p.o.) to mice every day from the next day of the immunizing. A two hundredth weight to body weight of miglyol was administered to mice in a control group. After 21 days, blood was drawn from each mouse and a serum was separated. BGG-specific IgE in a serum was measured by the sandwich ELISA method using a BGG-coating plate. The suppressive rate of IgE production was calculated from the dilution rate of the serum which has the same absorption intensity as that of the control group for judging the effect of the compound of the present invention.

IC50 [1]: 0.51 mg/L
IC50 [2]: 3.6 mg/L
SMILES: Cc1cc(-c2ccc(OCC=C(Cl)Cl)c(F)c2)c(C)cc1-c1ccc(O)cc1 [Compound I-963]
increasing number of eosinophils by the challenge of antigen [3]: significantly suppresses
increasing number of neutrophils by the challenge of antigen [3]: significantly suppresses
Suppressive rate of antigen-specific IgE [4]: >99%
